From US20100240924A1, “2-ETHYL-4,6-DIMETHYL-PHENYL-SUBSTITUTED TETRAMIC ACID DERIVATIVES AS PEST CONTROL AGENTS AND/OR HERBICIDES” (BAYER CROPSCIENCE AG, priority 2003, published 2010) come the findings set out here.

The subject of data set [1] is Avena sativa. Kind of data set: Herbicidal post-emergence action (Example A, greenhouse). Format: in vivo. The conditions noted are these: 320 g of a.i./ha. As to the method:
(§1) Seeds of monocotyledonous and dicotyledonous weed and crop plants are placed into sandy loam in wood fibre pots, covered with soil and cultivated in a greenhouse under good growth conditions. 2-3 weeks after sowing, the test plants are treated at the one-leaf stage. The test compounds, formulated as wettable powders (WP), are, in various dosages with a water application rate of. 600 l/ha (converted), with 0.2% of wetting agent added, sprayed onto the green parts of the plants. After the test plants were kept in the greenhouse under optimum growth conditions for about 3 weeks, the effect of the preparations is rated visually in comparison to untreated controls (herbicidal effect in percent (%): 100% effect=the plants have died, 0% effect=like control plants).

Data set [2] concerns Lolium. The description is as above. Format: in vivo. To be noted: 320 g of a.i./ha. As to the method:
as §1

For data set [3], the system named is Setaria. The data set is described as above. Format: in vivo. To be noted: 320 g of a.i./ha. As for the experimental part: as §1
Data set [4] relates to Sinapis. The description is as above. Format: in vivo. The conditions noted are these: 320 g of a.i./ha, rated visually after about 3 weeks. As to the method:
as §1

Data set [5] has as its system Stellaria. The description is as above. In kind it is in vivo. To be noted: 320 g of a.i./ha, rated visually after about 3 weeks. As for the experimental part:
as §1

Data set [6] relates to larvae of the mustard beetle (Phaedon cochleariae). The experiment in a line: Phaedon test (spray treatment). In kind it is in vivo. To be noted: 500 g/ha, spray treatment of Chinese cabbage discs. As to the method: [table] To produce a suitable preparation of active compound, 1 part by weight of active compound is mixed with the stated amounts of solvents and emulsifier, and the concentrate is diluted with emulsifier-containing water to the desired concentration. Discs of Chinese cabbage (Brassica pekinensis) are sprayed with a preparation of active compound of the desired concentration and, after they have dried, populated with larvae of the mustard beetle (Phaedon cochleariae).

The subject of data set [7] is greenhouse red spider mite (Tetranychus urticae). Kind of data set: Tetranychus test (OP-resistant/spray treatment). Format: in vivo. To be noted: 100 g/ha, OP-resistant, spray treatment of bean leaf discs. As to the method:
To produce a suitable preparation of active compound, 1 part by weight of active compound is mixed with the stated amounts of solvents and emulsifier, and the concentrate is diluted with emulsifier-containing water to the desired concentration.
Discs of bean leaves (Phaseolus vulgaris) which are infested by all stages of the greenhouse red spider mite (Tetranychus urticae) are sprayed with a preparation of active compound of the desired concentration.
After the desired period of time, the activity in % is determined. 100% means that all spider mites have been killed; 0% means that none of the spider mites have been killed.

Data set [8] deals with Summer barley. The experiment in a line: Herbicidal post-emergence action, use of safeners, vessel trials with cereals in the greenhouse (Example B). To be noted: in vivo. As for the experimental part:
(§2) Seeds of monocotyledonous and dicotyledonous weed and crop plants are placed into sandy loam in wood fibre pots or in plastic pots, covered with soil and cultivated in a greenhouse, during the vegetation period also outdoors outside of the greenhouse, under good growth conditions. 2-3 weeks after sowing, the test plants are treated at the one- to three-leaf stage. The test compounds, formulated as wettable powders (WP) or emulsifiable concentrates (EC) are, in various dosages with a water application rate of 300 l/ha (converted), with wetting agent (0.2 to 0.3%) added, sprayed onto the plants and the surface of the soil. 3-4 weeks after the treatment of the test plants, the effect of the preparations is rated visually in comparison to untreated controls (herbicidal effect in percent (%): 100% effect=the plants have died, 0% effect=like control plants). […]

The test system of data set [9] is Summer wheat. Described as above. The conditions noted are these: in vivo. As for the experimental part: as §2
Where [10] appears, read: rated visually after about 3 weeks.
[11] abbreviates: rated visually after about 3 weeks (second table).

With `CCc1cc(C)cc(C)c1C1=C(O)C(C)N(CC)C1=O` (centres unmarked) [Example I-a-1], the “herbicidal effect in percent, Avena sativa” value in [1] (setting [10]) is given as 80%. Besides, in data set [2] (setting [10]), the “herbicidal effect in percent, Lolium” value stood at 100%. The “herbicidal effect in percent, Setaria” value in data set [3] (setting [10]) amounted to 90%.

As to `CCc1cc(C)cc(C)c1C1=C(OC(=O)C(C)C)C(C)(C)NC1=O` [Example I-b-2], in [1] (setting [11]), the “herbicidal effect in percent, Avena sativa” value amounted to 100%. Further, the “herbicidal effect in percent, Lolium” value in data set [2] (setting [11]) came to 100%. Moreover, the “herbicidal effect in percent, Setaria” value in [3] (setting [11]) worked out at 100%. Further, the “herbicidal effect in percent, Sinapis” value in data set [4] is recorded as 70%. Moreover, the “herbicidal effect in percent, Stellaria” value in [5] came out at 80%.

Regarding `CCc1cc(C)cc(C)c1C1=C(OC(=O)C(C)C)C(C)(C2CC2)NC1=O` (centres unmarked) [Example I-b-10], the “Kill rate in % after 5 d” value in data set [6] is 100%; in [7], 90%.

Take `CCc1cc(C)cc(C)c1C1=C(OC(=O)C(C)C)C(CC)(CC)NC1=O` [Example I-b-18]: the “Kill rate in % after 5 d” value in data set [6] and in [7] was 100% each time.

On to `CCOC(=O)OC1=C(c2c(C)cc(C)cc2CC)C(=O)N(CC)C1C` (centres unmarked) [Example I-c-1], for which the “herbicidal effect in percent, Avena sativa” value in [1] (setting [10]) was 90%. The “herbicidal effect in percent, Lolium” value in [2] (setting [10]) was found to be 100%. In addition, the “herbicidal effect in percent, Setaria” value in [3] (setting [10]) came to 100%.

For `CCOC(=O)OC1=C(c2c(C)cc(C)cc2CC)C(=O)NC1(C)C(C)C` (centres unmarked) [Example I-c-3], the “herbicidal effect in percent, Avena sativa” value in [1] (setting [10]) was found to be 90%. Besides, in [2] (setting [10]), the “herbicidal effect in percent, Lolium” value is recorded as 100%. Besides, the “herbicidal effect in percent, Setaria” value in data set [3] (setting [10]) amounted to 90%.

As for `CCc1cc(C)cc(C)c1C1=C(O)CN(C2CC2)C1=O` [I-a-3], the “herbicidal effect in percent, Avena sativa” value in data set [1] (setting [11]) amounted to 80%. Also, in [2] (setting [11]), the “herbicidal effect in percent, Lolium” value is recorded as 100%. In data set [3] (setting [11]), the “herbicidal effect in percent, Setaria” value stood at 90%. For the same compound, in data set [4], the “herbicidal effect in percent, Sinapis” value came to 70%.

In the case of `CCc1cc(C)cc(C)c1C1=C(O)C(C)(C(C)C)NC1=O` (centres unmarked) [I-a′-2], the “Summer barley observed (%)” value in data set [8] is listed as 20%. Moreover, in [9], the “Summer wheat observed (%)” value amounted to 25%.

As to `CCc1cc(C)cc(C)c1C1=C(OC(=O)C(C)(C)C)C(C)(C(C)C)NC1=O` (centres unmarked) [I-b-3], the “herbicidal effect in percent, Avena sativa” value in data set [1] (setting [10]) came out at 90%. In data set [2] (setting [10]), the “herbicidal effect in percent, Lolium” value amounted to 70%. The “herbicidal effect in percent, Setaria” value in [3] (setting [10]) is recorded as 80%.

As to `CCOC(=O)OC1=C(c2c(C)cc(C)cc2CC)C(=O)NC1(C)C` [I-c-2], in [1] (setting [11]), the “herbicidal effect in percent, Avena sativa” value was 100%. In data set [2] (setting [11]), the “herbicidal effect in percent, Lolium” value came to 100%. Further, the “herbicidal effect in percent, Setaria” value in data set [3] (setting [11]) amounted to 100%. In addition, the “herbicidal effect in percent, Sinapis” value in data set [4] was 70%. Further, in [5], the “herbicidal effect in percent, Stellaria” value amounted to 70%.
